*1 amine or outer side, *2 acyl side, *3 side chain or, on linkers, in order; H or OH if unused. Primed or numbered codes have the meaning given here. Where no end group is shown, it is not given here. Side-chain parts run from the residue outwards. [ ]: non-standard residue; d: D form. The star is where a group is joined. C20 diacid = O=C(O)CCCCCCCCCCCCCCCCCCC(=O)*; γGlu = O=C(O)[C@H](CCC(=O)[*:2])N[*:1]; Iva = CC[C@](C)(N)C(=O)O; PEG2′ = not defined here; Aib = CC(C)(N)C(=O)O
Assays:
C57BL/6J mice = assay: Oral glucose tolerance (OGTT), repeated glucose loads followed to 24 h after one s.c. dose; assay type: in vivo; conditions: four OGTT curves (0-22 h); 100 μg/kg subcutaneously
Experimental: Eight-week-old male C57BL/6J mice (Model Animal Research Center, Nanjing University) were randomly grouped according to similar blood glucose (assessed by blood samples obtained from the tail tip), with six mice in each group. […] The initial blood samples (fasted blood glucose levels) were obtained after about 4 h. Subsequently, an oral dose of glucose (2 g/kg) was administered and the animals were placed back in their holding cages (t=0). […] The oral dose of glucose was then repeated at 8 h of administration, 12 h of administration and […], and blood glucose changes were detected and followed until 24 hours. The data were processed using the software GraphPadPrism to make a line graph of blood glucose changes, and the area under the curve was calculated to obtain an AUC graph, and the results are shown in FIG. 1.

FN protein (fibronectin) = assay: Western blot of FN protein in high glucose-induced in vitro renal fibrosis cell model; assay type: cell-based, rat; conditions: 10 μM; 30 mmol/L glucose; 48 h; mesangial and renal epithelial cells
Text: Hyperglycemia and increased production of glycosylation end products will cause morphological changes such as proliferation and hypertrophy of glomerular mesangial cells, increase in extracellular matrix (ECM) and mesangial expansion, which will eventually lead to the loss of its physiological function. […] Therefore, this example used high glucose to induce MCS mesangial cells and NRK renal epithelial cells to construct an in vitro renal fibrosis cell model for screening medicaments useful for the treatment of diabetic nephropathy. The renal mesangial cell strain GMC and glomerular epithelial cells mTEC used in this example were both cells kept in the applicant's laboratory (both were extracted from rat renal primary cells) and cultured in low sugar medium containing 10% fetal bovine serum. The cells were starved with serum-free culture medium for 24 h when grew to 70% confluence. The cells were divided into the following 9 groups by adjusting the glucose concentration as follows: […]

db/db diabetic mice [1] = assay: Dose determination in 8-week-old db/db diabetic mice: blood glucose and body weight; assay type: in vivo; conditions: for body weight (weight-lowering effect) / weight-lowering effect relative to compounds 3 and 8 / blood glucose (glucose-lowering effect): FIG. 3A, daily s.c.; for effect relative to polypeptide compounds 3 and 8 / overall hypoglycemic effect / blood glucose (hypoglycemic effect) / subsequent blood glucose course (long-lasting effect): FIG. 3B, every other day s.c.; for subsequent blood glucose course (long-lasting effect): from day 3 / after days 3-5
Experimental: The db/db mice diabetic model (purchased from Nanjing University-Nanjing Institute of Biomedical Research, about 8 weeks, and blood glucose and body weight were measured to ensure the smooth subsequent experiments) was obtained, and the model mice were randomly divided into 12 groups (including polypeptide compounds 3, 8, 13, 15, semaglutide and physiological saline groups), with 6 mice in each group and no difference in basal body weight and blood glucose. Each group was injected subcutaneously with compound 3 (80 and 120 μg/kg, 2 groups), compound 8 (80 and 120 μg/kg, 2 groups), compound 13 (80 and 120 μg/kg, 2 groups), compound 15 (80 and 120 μg/kg, 2 groups), semaglutide (80 and 120 μg/kg, 2 groups) and physiological saline (DN group: normal mice born in the same litter; DC group: db/db mice control group) every day or every other day.
Blood glucose and body weight of mice were measured after daily administration and 6 h fasting on alternate days.

db/db diabetic mice [2] = assay: Treatment of 12-week-old db/db diabetic mice: blood glucose, OGTT, ITT, ALT/AST, diabetic nephropathy indices; assay type: in vivo; conditions: for weekly blood glucose (hypoglycemic effect): FIG. 4A, blood glucose at normal levels at week 1; for weekly blood glucose (hypoglycemic effect) / improving oral glucose tolerance (OGTT) / improving insulin resistance (ITT) / ALT and AST in serum (hepatoprotective function): 120 μg/kg s.c. daily; for improving oral glucose tolerance (OGTT): FIG. 4B, week 4; for improving insulin resistance (ITT): FIG. 4C, week 5; for ALT and AST in serum (hepatoprotective function): FIG. 4D; for H&E staining of kidneys: glomerular adhesion, ameliorative and therapeutic effects: FIG. 5B; for H&E staining of kidneys: glomerular adhesion, ameliorative and therapeutic effects / PAS staining of kidneys: ameliorative effects on glomerular mesangial region / collagen content (Sirius red, FN and α-SMA staining of kidneys): after 8 weeks; for H&E staining of kidneys: glomerular adhesion, ameliorative and therapeutic effects / collagen content (Sirius red, FN and α-SMA staining of kidneys): compared to semaglutide, SAR425899 and MED C18-acid groups; for PAS staining of kidneys: ameliorative effects on glomerular mesangial region: FIG. 5C; for collagen content (Sirius red, FN and α-SMA staining of kidneys): FIGS. 5D to 5F
Experimental: Normal mice born in the same litter; DC group: db/db mice control group). Blood glucose and body weight were measured on alternate days after daily administration of the medicament, and water intake and food intake were measured once a week. OGTT was measured at week 4, insulin tolerance (ITT) was measured at week 5, metabolism of mice was examined using mouse metabolic cages at weeks 6-7, and various serological and pathological indices were taken at week 8.
Type 2-diabetes mice were characterized by obesity, insulin resistance, hyperglycemia, dyslipidemia and hepatic fat vacuole-like degeneration.
After 6 weeks of medical treatment, the mice was collected for urine using metabolic cages, and the protein content in the urine was detected using relevant kits. After 7 weeks of medical treatment, the material was taken and blood was used to detect serological indicators such as blood creatinine and urea nitrogen.

| Substance | long-acting hypoglycemic effects compared to semaglutide (C57BL/6J mice) | FN protein expression (Western blot) (FN protein (fibronectin)) | body weight (weight-lowering effect) (db/db diabetic mice [1]) | weight-lowering effect relative to compounds 3 and 8 (db/db diabetic mice [1]) | blood glucose (glucose-lowering effect) (db/db diabetic mice [1]; 80 μg/kg) | blood glucose (glucose-lowering effect) (db/db diabetic mice [1]; 120 μg/kg, vs saline DC group) | effect relative to polypeptide compounds 3 and 8 (db/db diabetic mice [1]) | overall hypoglycemic effect (db/db diabetic mice [1]) | blood glucose (hypoglycemic effect) (db/db diabetic mice [1]; 80 μg/kg) | blood glucose (hypoglycemic effect) (db/db diabetic mice [1]; 120 μg/kg) | subsequent blood glucose course (long-lasting effect) (db/db diabetic mice [1]; 120 μg/kg) | weekly blood glucose (hypoglycemic effect) (db/db diabetic mice [2]) | improving oral glucose tolerance (OGTT) (db/db diabetic mice [2]) | improving insulin resistance (ITT) (db/db diabetic mice [2]) | ALT and AST in serum (hepatoprotective function) (db/db diabetic mice [2]) | H&E staining of kidneys: glomerular adhesion, ameliorative and therapeutic effects (db/db diabetic mice [2]) | PAS staining of kidneys: ameliorative effects on glomerular mesangial region (db/db diabetic mice [2]) | collagen content (Sirius red, FN and α-SMA staining of kidneys) (db/db diabetic mice [2]) |
| --- | --- | --- | --- | --- | --- | --- | --- | --- | --- | --- | --- | --- | --- | --- | --- | --- | --- | --- |
| His-(D-Ser)-Gln-Gly-Thr-Phe-Thr-Ser-Asp-Lys(Gly-Gly-Ser-Gly-Ser-Gly-γGlu-CO(CH2)18-COOH)-Ser-Lys-Tyr-Leu-Glu-Aib-Lys-Ala-Ala-Gln-Asp-Phe-Val-Glu-Trp-Leu-Lys-Ala-Gly-Gly-Pro-Ser-Ser-Gly-Ala-Pro-Pro-Pro-Ser (H[dS]QGTFTSDKSKYLE[Aib]KAAQDFVEWLKAGGPSSGAPPPS; not fully specified (residue 10, C-terminus)) [Compound 13] | superior and significant long-acting hypoglycemic effects | inhibited FN expression more significantly | better weight-lowering effect | superior to that of compounds 3 and 8 | significant glucose-lowering effect with long-lasting effect | good glucose-lowering effect in 3-5 days | better than that of polypeptide compounds 3 and 8 | more excellent hypoglycemic effect | significant hypoglycemic effect on day 3, but the subsequent blood glucose level did not change much and tended to be stable | good hypoglycemic effect on days 3-5 | kept good hypoglycemic effect | significant hypoglycemic effects | performed more excellent | performed more excellent | more excellent hepatoprotective functions | more significant | more significant | improved more significantly |
| His-(D-Ser)-Gln-Gly-Thr-Phe-Thr-Ser-Asp-Lys(PEG2-PEG2-γGlu-CO(CH2)18CO2H)-Ser-Lys-Tyr-Leu-Glu-Aib-Lys-Ala-Ala-Gln-Asp-Phe-Val-Glu-Trp-Leu-Lys-Ala-Gly-Gly-Pro-Ser-Ser-Gly-Ala-Pro-Pro-Pro-Ser-NH2 (H[dS]QGTFTSDK([PEG2′-PEG2′-γGlu-C20 diacid])SKYLE[Aib]KAAQDFVEWLKAGGPSSGAPPPS-NH2) [Compound 3] | superior and significant long-acting hypoglycemic effects | inhibited FN expression more significantly | better weight-lowering effect |  | significant glucose-lowering effect | good glucose-lowering effect in 3-5 days |  | more excellent hypoglycemic effect | first decrease and then increase, and the overall hypoglycemic effect was significant | good hypoglycemic effect on days 3-5 | the blood glucose did not change much | significant hypoglycemic effects | performed more excellent | performed more excellent | more excellent hepatoprotective functions | more significant | more significant | improved more significantly |
| His-Aib-Gln-Gly-Thr-Phe-Thr-Ser-Asp-Lys(Gly-Gly-Ser-Gly-Ser-Gly-γGlu-CO(CH2)18-COOH)-Ser-Lys-Tyr-Leu-Asp-Glu-Arg-Ala-Ala-Gln-Asp-Phe-Iva-Gln-Trp-Leu-Leu-Asp-Gly-Gly-Pro-Ser-Ser-Gly-Aib-Pro-Pro-Pro-Ser (H[Aib]QGTFTSDKSKYLDERAAQDF[Iva]QWLLDGGPSSG[Aib]PPPS; not fully specified (residue 10, C-terminus)) [Compound 15] | superior and significant long-acting hypoglycemic effects | inhibited FN expression more significantly | better weight-lowering effect | superior to that of compounds 3 and 8 | significant glucose-lowering effect with long-lasting effect | good glucose-lowering effect in 3-5 days | better than that of polypeptide compounds 3 and 8 | more excellent hypoglycemic effect | significant hypoglycemic effect on day 3, but the subsequent blood glucose level did not change much and tended to be stable | good hypoglycemic effect on days 3-5 | kept good hypoglycemic effect | significant hypoglycemic effects | performed more excellent | performed more excellent | more excellent hepatoprotective functions | more significant | more significant | improved more significantly |
| His-Aib-Gln-Gly-Thr-Phe-Thr-Ser-Asp-Lys(PEG2-PEG2-γGlu-CO(CH2)18CO2H)-Ser-Lys-Tyr-Leu-Asp-Glu-Arg-Ala-Ala-Gln-Asp-Phe-Iva-Gln-Trp-Leu-Leu-Asp-Gly-Gly-Pro-Ser-Ser-Gly-Aib-Pro-Pro-Pro-Ser-NH2 (H[Aib]QGTFTSDK([PEG2′-PEG2′-γGlu-C20 diacid])SKYLDERAAQDF[Iva]QWLLDGGPSSG[Aib]PPPS-NH2) [Compound 8] | superior and significant long-acting hypoglycemic effects | inhibited FN expression more significantly | better weight-lowering effect |  | significant glucose-lowering effect | good glucose-lowering effect in 3-5 days |  | more excellent hypoglycemic effect | first decrease and then increase, and the overall hypoglycemic effect was significant | good hypoglycemic effect on days 3-5 | the blood glucose did not change much | significant hypoglycemic effects | performed more excellent | performed more excellent | more excellent hepatoprotective functions | more significant | more significant | improved more significantly |
